Measured values published in patent US8455534B2, “Estrogen receptor modulators and uses thereof” (Aragon Pharmaceuticals, Inc., priority 2010, dated 2013).
pIC50: −log10 of the molar value.

How the values were obtained:
[1] = target: T1, ER-α (Homo sapiens, UniProt P03372); test: Breast Cancer Cell ER-α In Cell Western Assay (SP1); assay type: cell-based; conditions: MCF-7 cells, SP1 antibody, 4 or 24 hr post compound addition; for Emax: MCF7, read-out: ER-α In Cell Western Assay (SP1) Max Response; for DC50: read-out: ER-α In Cell Western Assay (SP1) IC50
T1 sequence (P03372 1-595): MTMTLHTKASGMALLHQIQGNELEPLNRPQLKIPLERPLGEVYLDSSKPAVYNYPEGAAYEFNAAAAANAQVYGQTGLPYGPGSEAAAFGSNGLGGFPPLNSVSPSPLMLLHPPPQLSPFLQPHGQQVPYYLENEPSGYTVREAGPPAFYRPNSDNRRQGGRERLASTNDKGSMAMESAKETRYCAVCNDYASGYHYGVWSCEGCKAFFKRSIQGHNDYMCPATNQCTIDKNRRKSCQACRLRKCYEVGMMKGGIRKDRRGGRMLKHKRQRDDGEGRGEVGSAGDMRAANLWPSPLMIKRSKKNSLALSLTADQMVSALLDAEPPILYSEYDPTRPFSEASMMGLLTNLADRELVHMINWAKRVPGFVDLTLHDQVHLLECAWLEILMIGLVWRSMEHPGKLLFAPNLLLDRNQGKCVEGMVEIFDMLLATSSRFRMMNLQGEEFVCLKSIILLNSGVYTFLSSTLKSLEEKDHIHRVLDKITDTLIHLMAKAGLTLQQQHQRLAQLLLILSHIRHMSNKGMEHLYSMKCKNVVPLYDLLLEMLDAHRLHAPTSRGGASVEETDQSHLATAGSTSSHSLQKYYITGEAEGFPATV
Summary of the method: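 ER-α protein levels measured by in-cell western with SP1 antibody, ratioed to DRAQ5 DNA signal and given as percent of untreated controls. Compounds added at 0.3–0.000003 μM final (eleven semilog points) to adherent MCF-7 cells in stripped serum; exposure 4 or 24 h before fixation.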

[2] = system: MCF-7 cells; test: Breast Cancer Cell Viability Assay (MCF-7, CellTiter-Glo); assay type: cell-based; conditions: 5 days' compound exposure; for pIC50: Homo sapiens, MCF7, 120 h
Summary of the method: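 MCF-7 cells, 320 per well in RPMI with 10% FBS and 20 mM HEPES, adhered overnight, then exposed 5 days to an eleven-point semilog dilution (final 0.3-0.000003 μM). CellTiter-Glo luminescence read; % viability = (sample − cell-free background)/(untreated − background) × 100.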

SMILES | Emax [1] [%] | DC50 [1] [nM] | MCF7 Viability Assay Max Response [2] | pIC50 [2]
CC/C(=C(/c1ccc(/C=C/C(=O)O)cc1)c1ccc2[nH]ncc2c1)c1ccc(F)cc1 [Compound 3, (E)-3-(4-((E)-2-(4-Fluorophenyl)-1-(1H-indazol-5-yl)but-1-en-1-yl)phenyl)acrylic acid] | ≥ 40 | ≤ 100 | ++ (++ = a single % value ≧ 40%) | ≥ 7.00
CC/C(=C(/c1ccc(/C=C/C(=O)O)cc1)c1ccc2[nH]ncc2c1)c1ccc(OC)cc1C#N [Compound 144, (E)-3-(4-((E)-2-(2-Cyano-4-methoxyphenyl)-1-(1H-indazol-5-yl)but-1-en-1-yl)phenyl)acrylic acid] | ≥ 40 | ≤ 100 | ++ (++ = a single % value ≧ 40%) | ≥ 7.00
CC/C(=C(/c1ccc(/C=C/C(=O)O)cc1)c1ccc2[nH]ncc2c1)c1ccccc1CC [Compound 18, (E)-3-(4-((E)-2-(2-Ethylphenyl)-1-(1H-indazol-5-yl)but-1-en-1-yl)phenyl)acrylic acid] | ≥ 40 | ≤ 100 | ++ (++ = a single % value ≧ 40%) | ≥ 7.00
CC/C(=C(\c1ccc2[nH]ncc2c1)c1ccc(/C=C/C(=O)O)cc1OC)c1ccccc1 [Compound 108, (E)-3-(4-((Z)-1-(1H-Indazol-5-yl)-2-phenylbut-1-en-1-yl)-3-methoxyphenyl)acrylic acid] | ≥ 40 | – | ++ (++ = a single % value ≧ 40%) | ≥ 7.00
O=C(O)/C=C/c1ccc(/C(=C(/CC2CC2)c2ccccc2)c2ccc3[nH]ncc3c2)cc1 [Compound 56, (E)-3-(4-((E)-3-Cyclopropyl-1-(1H-indazol-5-yl)-2-phenylprop-1-en-1-yl)phenyl)acrylic acid] | ≥ 40 | ≤ 100 | ++ (++ = a single % value ≧ 40%) | ≥ 7.00
O=C(O)/C=C/c1ccc(/C(=C(/CCCl)c2ccc(F)cc2Cl)c2ccc3[nH]ncc3c2)cc1 [Compound 67, (E)-3-(4-((E)-4-Chloro-2-(2-chloro-4-fluorophenyl)-1-(1H-indazol-5-yl)but-1-en-1-yl)phenyl)acrylic acid] | ≥ 40 | ≤ 100 | ++ (++ = a single % value ≧ 40%) | ≥ 7.00
CC/C(=C(/c1ccc(/C=C(\Cl)C(=O)O)cc1)c1ccc2[nH]ncc2c1)c1ccccc1 [Compound 104, (Z)-3-(4-((E)-1-(1H-Indazol-5-yl)-2-phenylbut-1-en-1-yl)phenyl)-2-chloroacrylic acid] | ≥ 40 | ≤ 100 | ++ (++ = a single % value ≧ 40%) | < 7.00
CC/C(=C(\c1ccc2[nH]ncc2c1)c1ccc(/C=C/C(=O)O)cc1F)c1ccccc1 [Compound 105, (E)-3-(4-((Z)-1-(1H-Indazol-5-yl)-2-phenylbut-1-en-1-yl)-3-fluorophenyl)acrylic acid] | ≥ 40 | ≤ 100 | ++ (++ = a single % value ≧ 40%) | ≥ 7.00
CC/C(=C(/c1ccc(/C=C/C(=O)O)cc1)c1ccc2[nH]ncc2c1)c1ccccc1Cl [Compound 14, (E)-3-(4-((E)-2-(2-chlorophenyl)-1-(1H-indazol-5-yl)but-1-en-1-yl)phenyl)acrylic acid] | ≥ 40 | – | ++ (++ = a single % value ≧ 40%) | ≥ 7.00
CC(C)C/C(=C(/c1ccc(/C=C/C(=O)O)cc1)c1ccc2[nH]ncc2c1)c1ccccc1 [Compound 51, (E)-3-(4-((E)-1-(1H-Indazol-5-yl)-4-methyl-2-phenylpent-1-en-1-yl)phenyl)acrylic acid] | ≥ 40 | ≤ 100 | ++ (++ = a single % value ≧ 40%) | ≥ 7.00
O=C(O)/C=C/c1ccc(/C(=C(\c2ccccc2)C2CCC2)c2ccc3[nH]ncc3c2)cc1 [Compound 84, (E)-3-(4-((E)-2-Cyclobutyl-1-(1H-indazol-5-yl)-2-phenylvinyl)phenyl)acrylic acid] | ≥ 40 | ≤ 100 | ++ (++ = a single % value ≧ 40%) | ≥ 7.00
CC/C(=C(/c1ccc(/C=C/C(=O)O)cc1)c1ccc2[nH]ncc2c1F)c1ccc(Cl)cc1C [Compound 70, (E)-3-(4-((E)-2-(4-Chloro-2-methylphenyl)-1-(4-fluoro-1H-indazol-5-yl)but-1-en-1-yl)phenyl)acrylic acid] | ≥ 40 | ≤ 100 | ++ (++ = a single % value ≧ 40%) | ≥ 7.00
[2H]C([2H])([2H])C/C(=C(/c1ccc(/C=C/C(=O)O)cc1)c1ccc2[nH]ncc2c1)c1ccccc1 [Compound 28, (E)-3-(4-((E)-4,4,4-Trideutero-1-(1H-indazol-5-yl)-2-phenylbut-1-en-1-yl)phenyl)acrylic acid] | ≥ 40 | – | ++ (++ = a single % value ≧ 40%) | ≥ 7.00
CCOC(=O)/C=C/c1ccc(/C(=C(/CC)c2ccc(Cl)cc2Cl)c2ccc3[nH]ncc3c2)cc1 [Compound 112, (E)-Ethyl 3-(4-((E)-2-(2,4-dichlorophenyl)-1-(1H-indazol-5-yl)but-1-en-1-yl)phenyl)acrylate] | ≥ 40 | ≤ 100 | + (+ = a single % value < 40%) | ≥ 7.00
C/C(=C(/c1ccc(/C=C/C(=O)O)cc1)c1ccc2[nH]ncc2c1)c1ccccc1 [Compound 42, (E)-3-(4-((E)-1-(1H-Indazol-5-yl)-2-phenylprop-1-en-1-yl)phenyl)acrylic acid] | ≥ 40 | ≤ 100 | ++ (++ = a single % value ≧ 40%) | ≥ 7.00
CC/C(=C(/c1ccc(/C=C/C(=O)O)c(C)c1)c1ccc2[nH]ncc2c1)c1ccccc1 [Compound 101, (E)-3-(4-((E)-1-(1H-Indazol-5-yl)-2-phenylbut-1-en-1-yl)-2-methylphenyl)acrylic acid] | ≥ 40 | – | ++ (++ = a single % value ≧ 40%) | ≥ 7.00
COCCCC/C(=C(/c1ccc(/C=C/C(=O)O)cc1)c1ccc2[nH]ncc2c1)c1ccccc1 [Compound 81, (E)-3-(4-((E)-1-(1H-Indazol-5-yl)-6-methoxy-2-phenylhex-1-en-1-yl)phenyl)acrylic acid] | ≥ 40 | ≤ 100 | ++ (++ = a single % value ≧ 40%) | < 7.00
CC/C(=C(/c1ccc(/C=C/C(=O)O)cc1)c1cc2cn[nH]c2cc1F)c1ccccc1 [Compound 58, (E)-3-(4-((E)-1-(6-Fluoro-1H-indazol-5-yl)-2-phenylbut-1-en-1-yl)phenyl)acrylic acid] | ≥ 40 | ≤ 100 | ++ (++ = a single % value ≧ 40%) | ≥ 7.00
O=C(O)/C=C/c1ccc(/C(=C(\c2ccccc2)C2CCC2)c2ccc3[nH]nc(F)c3c2)cc1 [Compound 87, (E)-3-(4-((E)-2-Cyclobutyl-1-(3-fluoro-1H-indazol-5-yl)-2-phenylvinyl)phenyl)acrylic acid] | ≥ 40 | ≤ 100 | ++ (++ = a single % value ≧ 40%) | ≥ 7.00
CC/C(=C(/c1ccc(/C=C/C(=O)O)cc1)c1ccc2[nH]ncc2c1F)c1ccc(Cl)cc1C(F)(F)F [Compound 119, (E)-3-(4-((E)-2-(4-Chloro-2-(trifluoromethyl)phenyl)-1-(4-fluoro-1H-indazol-5-yl)but-1-en-1-yl)phenyl)acrylic acid] | ≥ 40 | ≤ 100 | ++ (++ = a single % value ≧ 40%) | ≥ 7.00
CC/C(=C(/c1ccc(/C=C/C(=O)O)cc1)c1ccc2[nH]ncc2c1)c1ccc(F)cc1C#N [Compound 138, (E)-3-(4-((E)-2-(2-Cyano-4-fluorophenyl)-1-(1H-indazol-5-yl)but-1-en-1-yl)phenyl)acrylic acid] | ≥ 40 | ≤ 100 | ++ (++ = a single % value ≧ 40%) | ≥ 7.00
O=C(O)/C=C/c1ccc(/C(=C(\c2ccccc2)C2CCCCC2)c2ccc3[nH]ncc3c2)cc1 [Compound 54, (E)-3-(4-((E)-2-Cyclohexyl-1-(1H-indazol-5-yl)-2-phenylvinyl)phenyl)acrylic acid] | ≥ 40 | ≤ 100 | ++ (++ = a single % value ≧ 40%) | ≥ 7.00
